Laboratory results reported in patent US20220095648A1, “USE OF A THRAUSTOCHYTRID BIOMASS FOR MAINTAINING GUT BARRIER FUNCTION” (priority 2019, published 2022).

Experiments:
Ross 308 broilers [1] = test: Colon length and colon mucosa aspect in DSS-treated broiler chickens; assay type: in vivo; details: DSS in drinking water, control diet
Excerpt: (§1) Material and Methods: • Experimental animals: Day-of-hatch male Ross 308 broilers were obtained from a local hatchery, placed in floor pens until 6 days of age, and provided heat to maintain an age-appropriate temperature. Chicks were provided ad libitum access to water and the balanced experimental diets meeting the poultry nutrition requirements recommended for Ross 308 broilers during the starter period from 1 to 16 days of age. • Experimental diets: A basal starter diet (CON) in the form of short pellets was formulated based on wheat, corn, and soybean meal (Table 14). The other experimental diets were formulated to contain 5% microalgae Aurantiochytrium mangrovei (MAG-5) or 2% curcumin (CUM-2) by replacing part of the cereal, protein or oil content. […]
(§2) • Dextran Sulfate Sodium (DSS) administration: DSS was used to increase intestinal permeability in broilers, by inducing epithelium damage. […] Fluorescence levels of diluted plasma (1:4 in saline solution 0.9% NaCl) were measured at an excitation wavelength of 485 nm and emission wavelength of 528 nm (BIOTEK synergie H1), and FITC-dextran concentration per mL of plasma was calculated based on a standard curve. • At the time of euthanisa, the colon was collected for morphometry. […] The colon (from the ileocecal junction to the cloaca) was then excised and its length was measured.

Ross 308 broilers [2] = test: Gut permeability: FITC-dextran in plasma of DSS-treated broiler chickens; assay type: in vivo; details: DSS administration, control diet; blood 1 h after oral gavage
Excerpt: as §1, §2

Dextran Sulfate Sodium [DSS]
length of the colon (Ross 308 broilers [1]; 16-day old chickens, compared with group without DSS): significantly increased | visual observation of the colon mucosa (Ross 308 broilers [1]; compared with DSS- control group): thinner, translucent, and more fragile | flow of FITC-dextran through the gut barrier (Ross 308 broilers [2]): significantly increased
